This assay has as its target T1, BRD9 (Homo sapiens, UniProt Q9H8M2).
T1 sequence (Q9H8M2 1-597): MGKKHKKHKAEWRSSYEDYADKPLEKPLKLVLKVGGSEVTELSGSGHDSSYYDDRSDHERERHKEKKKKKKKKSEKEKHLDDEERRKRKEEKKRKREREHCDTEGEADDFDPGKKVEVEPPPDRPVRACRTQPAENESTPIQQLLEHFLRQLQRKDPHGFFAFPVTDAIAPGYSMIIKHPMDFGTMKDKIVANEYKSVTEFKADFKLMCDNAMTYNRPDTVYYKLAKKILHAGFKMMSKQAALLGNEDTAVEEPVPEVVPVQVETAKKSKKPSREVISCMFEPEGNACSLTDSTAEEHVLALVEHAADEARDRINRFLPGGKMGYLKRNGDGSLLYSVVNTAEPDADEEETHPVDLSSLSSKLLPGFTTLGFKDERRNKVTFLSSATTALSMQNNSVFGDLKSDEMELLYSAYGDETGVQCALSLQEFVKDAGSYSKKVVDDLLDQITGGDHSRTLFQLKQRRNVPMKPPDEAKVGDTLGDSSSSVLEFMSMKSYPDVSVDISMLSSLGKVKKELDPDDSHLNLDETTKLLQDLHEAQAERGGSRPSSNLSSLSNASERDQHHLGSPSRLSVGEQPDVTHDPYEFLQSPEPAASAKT
The assay can be described thus: Drug washout and competition experiments in SYO-1 cells. Conditions: two washouts, five washes per washout step.

“Also recorded” adds a separate entry of the source.

Protocol: Drug Washout and Competition Experiments in SYO-1 Cells.
SYO-1 cells grown in flasks to log phase growth were washed with PBS and dissociated by adding TrypLE™ Express. The collected cells were resuspended in DMEM (high glucose, with GlutaMAX™ supplement) with 10% FBS.
Cells were collected using fresh media and measured for cell number. 1×10^6 cells were harvested for the 24-hour treatment sample and frozen down at −80° C. The remainder of the treated cells were washed five times with 10 ml fresh media, through sequential rounds of resuspension and centrifugation at 1,000 rpm for 5 minutes.
Another 1×10^6 cells were harvested for the 24-hour post-washout sample and frozen down at −80° C. The remainder of the cells were split off evenly into two separate 100 mm petri dishes and resuspended in 10 ml culture medium in each plate.
The remaining cells of each treatment group were washed five times with 10 mL fresh media. Cells were then seeded evenly into 6-well plates in 2 ml fresh media per well. 2 wells were allocated per collection time point.

As to `COc1cc(-c2cn(C)c(=O)c3cnc(N4CCC4)cc23)cc(OC)c1CN1CCC(CN2CCC3(CC2)CN(c2ccc4c(c2)C(=O)N([C@H]2CCC(=O)NC2=O)C4)C3)CC1` (single isomer, unassigned) [Compound S-D1], the “BRD9 degradation after second washout (removal of binding competitors)” value was “retention of the BRD9-suppressive activity; also recorded: degraded again”.

Values taken from patent publication US20240325370A1, “THERAPEUTIC REGIMENS OF A DEGRADER OF BRD9” (FOGHORN THERAPEUTICS INC., priority 2021, published 2024).
